Laboratory results published in patent US11447525B2 (NIIGATA UNIVERSITY, priority 2018, dated 2022).
Non-standard residues stand in square brackets, D forms with d. Residues, ends and D or L forms follow the SMILES beside them. *: point of attachment. 5FAM = O=C1OC2(c3ccc(O)cc3Oc3cc(O)ccc32)c2ccc(C(=O)*)cc21; NMeR = CN[C@@H](CCCNC(=N)N)C(=O)O

How the values were obtained:
[1] = test system: scirrhous pancreatic cancer model mice (BxPC3, MIA-Paca2, AsPC1 or Capan-2 cells with hMSC); assay: Selective absorption of FAM-NmLL in tissues of scirrhous pancreatic cancer model mice (Test Example 7); format: in vivo, NOD/SCID, KPC and KC mouse; conditions: 200 μg into the caudal vein, 30 minutes after administration; all of the mouse models
Method: FAM-NmLL was administered to pancreatic cancer model mice having scirrhous carcinoma, and the selective absorption of the FAM-NmLL in various tissues of the mouse was confirmed. A scirrhous pancreatic cancer model mouse having scirrhous carcinoma that forms abundant tumor-stroma interactions was produced in accordance with the method disclosed in the above Reference Document 1. Specifically, a 6-week old NOD/SCID mouse (CLEA Japan Inc., Japan), a Pdx1-Cre/KRAS^G12D (KC) mouse having a mutation in K-Ras, and a Pdx1-Cre/KRAS^G12D; p53^R172H (KPC) mouse having pancreatic cancer-specific mutations in K-Ras and p53 were raised under pathogen-free conditions. […]
FAM-NmLL (200 μg) was injected into the caudal vein of each of the obtained scirrhous pancreatic cancer model mice. Subsequently, the pharmacokinetics of the peptide 30 minutes after administration were analyzed by tissue analysis of the freshly dissected specimen of the peptide-administered mouse. […]

[2] = test system: pancreatic cancer cells (BxPC3, PK-8, MIA-Paca2); assay: Accumulation of FAM-labeled peptides in cells, inverted fluorescence microscope (Test Example 2); format: cell-based, human; conditions: 2 μM, 37° C., 2 hours
Method: Tests were conducted to confirm the accumulation of each peptide in each of the cells shown below in Table 8. Further, among the peptides shown below in Table 9, the FAM-PCPP11 used in Test Example 1, the LL peptide in which the N-terminus had been FAM-labeled (FAM-LL), and the Ld peptide in which the N-terminus had been FAM-labeled (FAM-Ld) were used.
Each of FAM-PCPP11, FAM-LL and FAM-Ld was added to each of the cells shown in Table 8 in an amount sufficient to achieve a final concentration in the medium of 2 μM, and following cultivation of the cells at 37° C. for 2 hours, the sample was washed 3 times with a medium containing no peptide to remove any peptide within the medium. Subsequently, the incorporation of each of the peptides into each of the cells was evaluated visually using an inverted fluorescence microscope. Prior to the microscopic examination, the culture supernatant to which the peptide had been added was removed, and following washing three times with 1×PBS (−), a trypsin treatment was conducted to remove the adherent cells, and the resultant was immediately transferred into a new 96-well plate and once again suspended in fresh culture solution before the microscopic examination was performed. In FIG. 8A, “L” indicates the cells to which FAM-PCPP11 was added, “LL” indicates the cells to which FAM-LL was added, and “Ld” indicates the cells to which FAM-Ld was added. Further, the fluorescent images in the BxPC3 cells indicate a representative example of pancreatic cancer cells.
Furthermore, FIG. 8B is a graph quantifying the fluorescence detected in each of the above cells in FIG. 8A, with the fluorescence intensity detected in each cell shown relative to a value of 1.0 for the fluorescence detected in the H2110 cells, which is a cell line derived from an adenocarcinoma in a human non-small-cell lung cancer system, to which each of the FAM-PCPP11 and FAM-LL peptides had been added.
Further, each of FAM-PCPP11, FAM-LL and FAM-NmLL was added to each of the cells shown in Table 8 in an amount sufficient to achieve a final concentration in the medium of 2 μM, and following cultivation of the cells at 37° C. for 2 hours, the sample was washed 3 times with a medium containing no peptide to remove any peptide within the medium. Subsequently, the incorporation of each of the peptides into each of the cells was evaluated visually using an inverted fluorescence microscope. […]

absorption into the cancer cell nests inside the tumor tissues [1]: strong absorption | absorption into the tumor tissues (main lesions and metastatic lesions) [1]: strong absorption
Compound: C[C@@H](O)[C@H](NC(=O)[C@@H](NC(=O)[C@@H]1CCCN1C(=O)[C@H](CCCNC(=N)N)NC(=O)[C@H](CCCNC(=N)N)NC(=O)CNC(=O)[C@@H]1CCCN1C(=O)[C@H](CCCCN)NC(=O)[C@H](Cc1c[nH]cn1)NC(=O)[C@H](Cc1c[nH]c2ccccc12)NC(=O)[C@@H](NC(=O)[C@@H](NC(=O)[C@@H]1CCCN1C(=O)[C@H](CCCNC(=N)N)N(C)C(=O)[C@H](CCCNC(=N)N)NC(=O)c1ccc2c(c1)C(=O)OC21c2ccc(O)cc2Oc2cc(O)ccc21)[C@@H](C)O)[C@@H](C)O)[C@@H](C)O)C(=O)N[C@@H](Cc1c[nH]c2ccccc12)C(=O)N[C@@H](Cc1c[nH]cn1)C(=O)N[C@@H](CCCCN)C(=O)N1CCC[C@H]1C(=O)O [FAM-NmLL] (5FAM-R[NMeR]PTTWHKPGRRPTTWHKP-OH; C-terminus assumed)
fluorescence compared with the sample containing FAM-PCPP11 [2]: stronger fluorescence
